Source: patent US20110294794A1, “TREATMENT OF PROTEINOPATHIES USING A FARNESYL TRANSFERASE INHIBITOR” (Link Medicine Corporation, priority 2008, published 2011)
Entries after “also recorded” stand apart in the source; their conditions may differ.

Assays:
TAU = test: TAU441 transgenic mice, TAU immunoreactivity (AT180, HT7) in the amygdala; format: in vivo, mouse; conditions: 0.09 mg/kg once every 24 hours, three months
Protocol: (§1) Animals and treatments: Male and female human WT alpha-synuclein over-expressing transgenic mice^32 at 6 months of age were given vehicle (10% beta-cyclodextrin) or LNK-754-TS (0.09, 0.9 and 9 mg/kg) per oral gavage twice daily for 3 months or animals at 7 months of age were given vehicle (2.5% beta-cyclodextrin) or LNK-754-TS (2 mg/kg) once every three days for 3 months. Male and female TAU transgenic mice expressing TAU441 bearing the missense mutations V337M^50 and R406W under the control of the murine Thy-1 promoter with a CB6xC57BL/6 background were 5 months old at the time when the oral treatment for three months with LNK-754-TS (0.9 and 0.09 mg/kg) as well as vehicle (2.5% beta-cyclodextrin) was started. Female human APP/PS1 (APP (London V7171)/PS1(A246E)) over-expressing transgenic mice were treated with LNK-754-TS (0.9 mg/kg) or vehicle (2.5% beta-cyclodextrin) for 2 months or 12 days.
Immunohistochemistry and quantification of stained cells: For evaluation of α-synuclein immunoreactivity (IR), 5 sagittal cryo-cut sections (10 μm slice thickness) from five different layers were used for counting of IR cells in the cortex and hippocampus. […] IR positive cells were quantified using specialized image analysis software (Image Pro Plus, version 4.5.1.29). […] Images were evaluated with ImageProPlus (version 6.2) image analysis software. For APP/PS1 transgenic animals sagittal hemisections (40 μm) were collected and processed for Aβ immunohistochemistry using an 6E10 antibody, Thioflavin-S staining Primary antibodies were detected by the ABC method. […]
This study was designed to evaluate the effects of a treatment with LNK-754-TS dosed at 0.09 mg per kg on behavior, TAU and TAU-pT231 levels, and brain morphology of TAU441 Tg mice. Histological evaluations were performed to quantitatively evaluate TAU pathology. TAU depositions were determined using the monoclonal TAU-antibodies AT180 and HT7. […]

α-synuclein = test: Masliah D-line human WT α-synuclein transgenic mouse, α-synuclein immunoreactivity / ELISA; format: in vivo; conditions: for α-synuclein deposition in cortex and hippocampus: three months (FIG. 9a); for number of α-synuclein positive neurons in the brain: higher-dose trial (FIG. 2A)
Protocol: as §1
Immunohistochemistry and quantification of stained cells: For evaluation of α-synuclein immunoreactivity (IR), 5 sagittal cryo-cut sections (10 μm slice thickness) from five different layers were used for counting of IR cells in the cortex and hippocampus. Brain sections were stained with a monoclonal human α-synuclein specific antibody (Alexis®; Cat# 804-258-L001; dilution 1:5), followed by a secondary Ab Cy 2-Goat Anti-Rat (Jackson ImmunoResearch®; dilution 1:200). IR positive cells were quantified using specialized image analysis software (Image Pro Plus, version 4.5.1.29). For Tau transgenic animals, 5 μm thick coronal paraffin sections were stained with the monoclonal mouse anti-human TAU-antibodies (AT180—1:100; HT—1:500) and visualized using an anti-mouse Cy3 secondary antibody (1:500, Jackson laboratories®). Images were evaluated with ImageProPlus (version 6.2) image analysis software. For APP/PS1 transgenic animals sagittal hemisections (40 μm) were collected and processed for Aβ immunohistochemistry using an 6E10 antibody, Thioflavin-S staining Primary antibodies were detected by the ABC method.
ELISA quantification of α-Synuclein in the α-Synuclein transgenic animals: Brain homogenate was centrifuged and the supernatant saved as fraction F1. The pellet was washed then resuspended and saved as fraction F2. Plates (Nunc, 464718) were coated with SYN-1 (1:1000, BD Transduction Labs, 610787). Monomeric recombinant α-synuclein was included as an internal standard. Biotinylated antibody FL-140 (1:300, Santa Cruz Biotechnology, sc-10717-B) and ExtrAvidin-Alkaline phosphatase (3:5000, Sigma, E2636) was added followed by pNPP substrate solution (Sigma, N1891). Raw absorbance (405 nm) was then normalized to the total protein concentration of each sample. In the APP/PS1 transgenic animal, brains were homogenized and the supernatant, Faction 1, was separated from the pellet. The pellets were further processed with addition of NP40 and Triton X-100. The supernatant was separated from the pellet as the insoluble membrane, Fraction 2, and was dissolved in 8M Guanidine. To quantify the amount of human Aβ-40 and Aβ-42, ELISA kits were used (The Genetics Company, Zurich, Switzerland).
In FIG. 2 is shown efficacy data for LNK-754-TS in the Masliah D-line transgenic α-synuclein mouse (an accepted model of synucleinopathies). Two trials are shown, the first (FIG. 2A) at higher doses of LNK-754-TS: 45 mg/kg and 9 mg/kg. […] The second trial (FIG. 2B) explores the low dose range for efficacy in the α-synuclein models. […]
After dosing with LNK-754-TS for three months (twice daily at 0.09 mg/kg or 0.9 mg/kg), α-synuclein accumulation in the brain was analyzed by immunohistochemical (human specific α-synuclein immunoreactivity) and biochemical (α-synuclein ELISA) means. […]

[1] = three-month dosing trial (FIG. 9c)
[2] = twice daily at 0.09 mg/kg or 0.9 mg/kg, three months

C#Cc1cccc(-c2cc(=O)n(C)c3ccc([C@](O)(c4ccc(Cl)cc4)c4cncn4C)cc23)c1 [LNK-754-TS, (R)-6-[(4-chlorophenyl)-hydroxyl-(1-methyl-1-H-imidazol-5-yl)-methyl]-4-(3-ethynylphenyl)-1-methyl-2-(1H)-quinonlinone (2S,3S)-dihydroxybutanedioate]
number of AT180 immunoreactive (affected) cells in the amygdala (TAU): comparable to those of baseline animals | phosphorylated Tau (AT180) immunoreactivity in the amygdala vs. vehicle (TAU): significantly decreased; also recorded: significant reduction; also recorded: significantly reduced | total Tau (HT7) immunoreactivity in the amygdala vs. vehicle (TAU): not significantly reduced; also recorded: did not change | α-synuclein deposition in cortex and hippocampus (α-synuclein; 0.09 mg/kg twice every 24 hr): halts deposition | α-synuclein deposition in cortex and hippocampus (α-synuclein; 0.9 mg/kg twice every 24 hr): halts deposition | cortical α-synuclein immunoreactivity vs. baseline and vehicle (α-synuclein; 2 mg/kg once every 72 hr, three months (FIG. 9b)): significantly lower; also recorded: significantly reduces | number of α-synuclein positive neurons in the brain (α-synuclein; 9 mg/kg PO BID 3 months): significant reduction | number of α-synuclein IR cells in the hippocampus vs. saline (α-synuclein; 9 mg/kg group, PO BID 3 months, lower-dose trial (FIG. 2B)): significance level was not reached | number of α-synuclein positive neurons in the brain (α-synuclein; 45 mg/kg PO BID 3 months): not significantly effective | efficacious dose in the α-synuclein transgenic mouse (α-synuclein; PO BID 3 months): ≤ 9 mg/kg | number of α-synuclein IR cells in the hippocampus vs. saline (α-synuclein; all applied dosages except 9 mg/kg, PO BID 3 months (FIG. 2B)): significant decrease | effect on neuronal architecture (NeuN) (α-synuclein; [1]): lack of effect | reduction of α-synuclein immunoreactivity, representative hippocampal slices (α-synuclein; [1]): ca. 50% | astrocytosis: GFAP staining (α-synuclein; [2]): unchanged | drug-dependent toxicity (α-synuclein; [2]): None of the treated animals showed any evidence | neuronal loss: NeuN staining and brain volume (α-synuclein; [2]): unchanged | synaptic damage: synaptophysin staining (α-synuclein; [2]): unchanged | α-synuclein accumulation in the brain (immunoreactivity and ELISA) (α-synuclein; [2]): clearly reduced
